From US3953456A, “Carbostyril derivatives and process for preparing the same” (Otsuka Pharmaceutical Co., Ltd., priority 1972, dated 1976)
Where two headings read alike, the source gives them in different places.

Experiments:
[1] = Acute toxicity in rat (LD50, 50% lethal dose); conditions: in vivo, rat (Wister strain)
Procedure: Also, the acute toxicity in rat (Wister strain) was determined in a standard manner with respect to representative compounds of this invention.

isoprenaline = assay: Antagonistic activity against isoprenaline (β-blockers screening method) in anesthesized dogs: % inhibition of pulse increase and blood pressure reduction; assay type: in vivo, male mongrel adult dogs; conditions: isoprenaline 0.3 γ/Kg after 5 minutes; for Antagonistic Activity Against Isoprenaline (% Inhibition), Blood Pressure: pressure reduction by isoprenaline alone = 100%; for Antagonistic Activity Against Isoprenaline (% Inhibition), Pulse: pulse increase by isoprenaline alone = 100%
Procedure: The antagonistic activity of the compounds of this invention against isoprenaline was determined using the β-blockers screening method (C. E. Powell, I. H. Slater : J. Pharmac., 122, 480 (1958 )).
Male mongrel adult dogs, weighing 13 to 20 Kg were anesthesized with 30 mg/Kg of body weight of pentabarbital sodium administered intravenously. Each of the test compounds was then administered to the anesthesized dog at a dosage level of 30γ or 100γ/Kg of body weight from the femoral vein and after 5 minutes isoprenaline was administered to the dog through the femoral vein at a dosage level of 0.3 γ/Kg of body weight. the blood pressure and the pulse (H.R.) were then recorded on a polygraph through a pressure transducer and a tachometer operated by the R wave of the electrocardiograph, respectively, to determine % inhibitory activity of the test compound against the pulse increase and the pressure reduction induced by isoprenaline.
*The pulse increase and the pressure reduction induced by the
administration of isoprenaline alone are referred to as 100%.

| SMILES | LD50 ([1]; iv, i.v., read-out: LD50 i.v.) [mg/kg] | LD50 ([1]; po, p.o., read-out: LD50 p.o.) [mg/kg] | Antagonistic Activity Against Isoprenaline (% Inhibition), Blood Pressure (isoprenaline; 100 γ/Kg from the femoral vein) [%] | Antagonistic Activity Against Isoprenaline (% Inhibition), Pulse (isoprenaline; 100 γ/Kg from the femoral vein) [%] | Antagonistic Activity Against Isoprenaline (% Inhibition), Blood Pressure (isoprenaline; 30 γ/Kg from the femoral vein) [%] | Antagonistic Activity Against Isoprenaline (% Inhibition), Pulse (isoprenaline; 30 γ/Kg from the femoral vein) [%] |
| --- | --- | --- | --- | --- | --- | --- |
| CC(C)NCC(O)COc1cccc2ccc(=O)[nH]c12 (centres unmarked) [8-(2-hydroxy-3-isopropylamino)propoxycarbostyril] | 178 | 2000 | 66.2 | 57.4 | – | – |
| CC(C)(C)NCC(O)COc1cccc2[nH]c(=O)ccc12 (centres unmarked) [5-(2-hydroxy-3-tert-butylamino)propoxycarbostyril] | 136 | 1800 | – | – | 97.9 | 96.1 |
| CCC(C)NCC(O)COc1cccc2ccc(=O)[nH]c12 (centres unmarked) [8-(2-hydroxy-3-sec-butylamino)propoxycarbostyril] | 143 | 1900 | 51.8 | 42.1 | – | – |
| CC(C)(C)NCC(O)COc1cccc2ccc(=O)[nH]c12 (centres unmarked) [8-(2-hydroxy-3-tert-butylamino)propoxycarbostyril] | 148 | 1800 | 78.3 | 72.6 | – | – |
| CC(C)NCC(O)COc1cccc2[nH]c(=O)ccc12 (centres unmarked) [5-(2-hydroxy-3-isopropylamino)propoxycarbostyril] | 162 | 2000 | – | – | 89.2 | 87.6 |
